This passage reports Activity, inhibition in vivo and ED50 results from ChEMBL document CHEMBL3044898, “Alkoxyphenyl methanesulfonamides: synthesis, anti-inflammatory effect, and docking studies” (Med Chem Res, 2012).

Series [1] concerns Rattus norvegicus. The experiment in a line: Ulcerogenic activity in Rattus norvegicus Wistar (rat) assessed as length of lesion at 30 mg/kg, po after 6 hr (reference value: 0 mm). The class given is toxicity, organism-based. Set-up: dose 30 mg/kg, route oral. The conditions noted are these: in vivo.
Series [2] has as its system Rattus norvegicus. Kind of series: Anti-inflammatory activity in Rattus norvegicus Wistar (rat) assessed as inhibition of carrageenan-induced paw edema at 30 mg/kg, po administered 30 min post carrageenan challenge measured at 5 hr relative to control. Format: functional. (In general: The carrageenan paw model is a standard test of acute inflammation.)
Series [3] concerns Rattus norvegicus. Kind of series: Anti-inflammatory activity in po dosed Rattus norvegicus Wistar (rat) assessed as inhibition of carrageenan-induced paw edema administered 30 min post carrageenan challenge measured at 5 hr. The class given is functional.
The test system of series [4] is Rattus norvegicus. Kind of series: Anti-inflammatory activity in Rattus norvegicus Wistar (rat) assessed as inhibition of carrageenan-induced paw edema at 25 mg/kg, po administered 30 min post carrageenan challenge measured at 5 hr relative to control. Format: functional.
Series [5] concerns Rattus norvegicus. The experiment in a line: Ulcerogenic activity in Rattus norvegicus Wistar (rat) assessed as length of lesion at 75 mg/kg, po after 6 hr (reference value: 0 mm). Format: toxicity, organism-based. Also on record: dose 75 mg/kg, route oral. Conditions: in vivo.
Series [6] has as its system Rattus norvegicus. The experiment in a line: Anti-inflammatory activity in Rattus norvegicus Wistar (rat) assessed as inhibition of carrageenan-induced paw edema at 5 mg/kg, po administered 30 min post carrageenan challenge measured at 5 hr relative to control. Format: functional.
Series [7] deals with Rattus norvegicus. Kind of series: Ulcerogenic activity in Rattus norvegicus Wistar (rat) assessed as length of lesion at 5 mg/kg, po after 6 hr (reference value: 0 mm). The class given is toxicity, organism-based. Set-up: dose 5 mg/kg, route oral. The conditions noted are these: in vivo.
The test system of series [8] is Rattus norvegicus. Kind of series: Ulcerogenic activity in Rattus norvegicus Wistar (rat) assessed as length of lesion at 25 mg/kg, po after 6 hr (reference value: 0 mm). The class given is toxicity, organism-based. Also on record: dose 25 mg/kg, route oral. The conditions noted are these: in vivo.
The subject of series [9] is Rattus norvegicus. Kind of series: Anti-inflammatory activity in Rattus norvegicus Wistar (rat) assessed as inhibition of carrageenan-induced paw edema at 75 mg/kg, po administered 30 min post carrageenan challenge measured at 5 hr relative to control. The class given is functional.
Series [10] relates to Rattus norvegicus. The experiment in a line: Anti-inflammatory activity in Rattus norvegicus Wistar (rat) assessed as inhibition of carrageenan-induced paw edema at 100 mg/kg, po administered 30 min post carrageenan challenge measured at 5 hr relative to control. Format: functional.
Series [11] has as its system Rattus norvegicus. The experiment in a line: Ulcerogenic activity in Rattus norvegicus Wistar (rat) assessed as length of lesion at 100 mg/kg, po after 6 hr (reference value: 0 mm). Format: toxicity, organism-based. Set-up: dose 100 mg/kg, route oral. Conditions: in vivo.
The subject of series [12] is Rattus norvegicus. Kind of series: Ulcerogenic activity in Rattus norvegicus Wistar (rat) assessed as length of lesion at 10 mg/kg, po after 6 hr (reference value: 0 mm). Format: toxicity, organism-based. Also on record: dose 10 mg/kg, route oral. Conditions: in vivo.

SMILES strings stand for the structures.

For the compound `CS(=O)(=O)c1ccc(C2=C(c3ccccc3)C(=O)OC2)cc1` [ROFECOXIB], the Activity with Rattus norvegicus [1] is on record as 2 mm. The inhibition in vivo at 30 mg/kg in the series with Rattus norvegicus [2] came to 82.8%. Besides, the ED50 in the series with Rattus norvegicus [3] was 2.61 mg/kg.

Consider `CCCCCCCCOc1cc(C(C)=O)ccc1NS(C)(=O)=O`, for which the inhibition in vivo at 25 mg/kg with Rattus norvegicus [4] was determined as 62.5%. Besides, the Activity with Rattus norvegicus [5] was determined as 2 mm; in the series on Rattus norvegicus [7], 0 mm; in the series on Rattus norvegicus [8], 1 mm. Moreover, the inhibition in vivo at 5 mg/kg with Rattus norvegicus [6] is 51.5%. In addition, the inhibition in vivo at 75 mg/kg in the series on Rattus norvegicus [9] was 69.9%. Besides, the ED50 in the series on Rattus norvegicus [3] is 2.36 mg/kg.

On to `CCOc1cc(C(C)=O)ccc1NS(C)(=O)=O`, for which the inhibition in vivo at 25 mg/kg in the series on Rattus norvegicus [4] turned out to be 54.6%. Besides, the Activity in the series with Rattus norvegicus [5] was found to be 1 mm; in the series with Rattus norvegicus [7] it was 0 mm; in the series with Rattus norvegicus [8], 0 mm. Further, in the series with Rattus norvegicus [6], the inhibition in vivo at 5 mg/kg was 44%. In addition, the inhibition in vivo at 75 mg/kg in the series on Rattus norvegicus [9] amounted to 66.2%. Also, in the series with Rattus norvegicus [3], the ED50 is 1.8 mg/kg.

Consider `CC(=O)c1ccc(NS(C)(=O)=O)c(O)c1`, for which the inhibition in vivo at 100 mg/kg with Rattus norvegicus [10] stood at 15.9%. In addition, the Activity in the series with Rattus norvegicus [11] is 1 mm.

On to `CCCOc1cc(C(C)=O)ccc1NS(C)(=O)=O`, for which the inhibition in vivo at 25 mg/kg with Rattus norvegicus [4] stood at 62.1%. Besides, the Activity stood at 1 mm in the series on Rattus norvegicus [5], 0 mm with Rattus norvegicus [7] and 1 mm in the series with Rattus norvegicus [8]. Besides, in the series with Rattus norvegicus [6], the inhibition in vivo at 5 mg/kg was determined as 56.6%. The inhibition in vivo at 75 mg/kg with Rattus norvegicus [9] was 67.2%. Also, the ED50 in the series on Rattus norvegicus [3] is 2.25 mg/kg.

For `CC(=O)c1ccc(NS(C)(=O)=O)c(OC2CCCC2)c1`, the inhibition in vivo at 25 mg/kg in the series on Rattus norvegicus [4] is 57.4%. The Activity is listed as 1 mm in the series on Rattus norvegicus [5], 0 mm in the series on Rattus norvegicus [7] and 0 mm with Rattus norvegicus [8]. Besides, the inhibition in vivo at 5 mg/kg in the series on Rattus norvegicus [6] came out at 58.7%. Besides, the inhibition in vivo at 75 mg/kg with Rattus norvegicus [9] stood at 69.2%. Moreover, the ED50 in the series on Rattus norvegicus [3] came to 2.31 mg/kg.

Turning to `COc1ccc2c(c1)c(CC(=O)O)c(C)n2C(=O)c1ccc(Cl)cc1` [INDOMETHACIN], the Activity in the series on Rattus norvegicus [12] is recorded as 19.4 mm. For the same compound, the ED50 with Rattus norvegicus [3] was 2.2 mg/kg.

By inhibition in vivo is commonly meant the change of the read-out against control, counted positive when it falls. For orientation: ED50 means the midpoint of the dose-response relation.
